Data published in patent US20100197650A1, “COMPOSITIONS AND METHODS OF TREATMENT COMPRISING CEFTAROLINE” (FOREST LABORATORIES HOLDINGS LTD., priority 2008, published 2010).
≈ marks a conversion by molar mass, not a printed value. Read-outs that look alike come from different tables or passages of the source.

Columns and labels:
HA-MRSA [1] = assay: Susceptibility testing MIC/MBC, broth microdilution (Example 3); type: cell-based, Staphylococcus aureus; conditions: for MIC: read-out: MIC; for MIC50: read-out: MIC50
Method: Two hundred clinical HA-MRSA isolates, harboring the SCCmecIV type, were evaluated for susceptibility testing. […] Four strains, including 1 hVISA and 1 VISA, characterized by population analysis profile and Macro Etest were selected for time-kill analysis.
Trypose soy agar (TSA; Difco, Detroit, Mich.) was used for colony counting.
Minimum inhibitory concentrations (MIC) and minimum bactericidal concentrations (MBC) were determined by broth microdilution for all antimicrobials, according to the Clinical and Laboratory Standards Institute (CLSI) guidelines (Clinical and Laboratory Standards Institute. 2006. Methods for Dilution Antimicrobial Susceptibility Tests for Bacteria That Grow Aerobically; Approved Standard. 7th ed. Wayne, Pa.: CLSI). MBC values were determined by plating of aliquots of 5 μL from clear wells onto TSA. All susceptibility testing were performed in duplicate.

ESBL-producing E. coli = assay: Susceptibility testing MIC/MBC, broth microdilution (Example 2); type: cell-based, Escherichia coli; conditions: for MBC / MIC: Escherichia coli
[2] = system: AmpC-derepressed Enterobacter cloacae; assay: microbe, parasite or virus in culture; type: cell-based; conditions: for MBC / MIC: Enterobacter cloacae
HA-MRSA [3] = assay: Time-kill curves at ¼ and ½ MIC (Example 3); type: cell-based, Staphylococcus aureus; conditions: drug alone at ½ MIC, the 2 vancomycin-susceptible MRSA, followed by regrowth
Method: Four randomly selected HA-MRSA isolates were evaluated in time-kill experiments, using a starting inoculum at ˜10^6 CFU/mL and antimicrobials at ¼ and ½ MIC. Regimens included ceftaroline, vancomycin and tobramycin alone or combination of tobramycin with ceftaroline or vancomycin. […] Additivity, antagonism and indifference were defined as <2 but >1 log10 kill, >1 log10 growth and ±1 log kill, respectively.
Differences between regimens were analyzed by T-test or ANOVA with Tukey's post hoc test. […] A P value <0.05 was considered significant.

P. aeruginosa = assay: Susceptibility testing MIC/MBC, broth microdilution (Example 2); type: cell-based, Pseudomonas aeruginosa; conditions: for MBC / MIC: Pseudomonas aeruginosa; for MBC: read-out: MBC; for MIC: read-out: MIC
[4] = HA-MRSA isolates of origin Blood
[5] = HA-MRSA isolates of origin Lung
[6] = HA-MRSA isolates of origin Skin
[7] = HA-MRSA isolates of origin Unknown
[8] = HA-MRSA isolates of origin Urine
[9] = E. cloacae (10) clinical isolates
[10] = P. aeruginosa (20) clinical isolates

With `CCO/N=C(\C(=O)N[C@@H]1C(=O)N2C(C(=O)[O-])=C(Sc3nc(-c4cc[n+](C)cc4)cs3)CS[C@H]12)c1nsc(N)n1` [Ceftaroline] the “% of Isolates with MBC 0.5 μg/mL” value (HA-MRSA [1]; 200 HA-MRSA isolates) was 22%, the “% of Isolates with MBC 1 μg/mL” value (HA-MRSA [1]; 200 HA-MRSA isolates) was 62.5% and the “% of Isolates with MBC 2 μg/mL” value (HA-MRSA [1]; 200 HA-MRSA isolates) was 15.5%. For the same compound, the “% of Isolates with MIC 0.25 μg/mL” value (HA-MRSA [1]; 200 HA-MRSA isolates) was 4%, the “% of Isolates with MIC 0.5 μg/mL” value (HA-MRSA [1]; 200 HA-MRSA isolates) was 35.5% and the “% of Isolates with MIC 1 μg/mL” value (HA-MRSA [1]; 200 HA-MRSA isolates) was 57%. For the same compound, the “% of Isolates with MIC 2 μg/mL” value (HA-MRSA [1]; 200 HA-MRSA isolates) was 1.5%, the “MBC range” value (HA-MRSA [1]; 200 HA-MRSA isolates) was 0.5 to 2 µg/mL and the “MIC range” value (HA-MRSA [1]; 200 HA-MRSA isolates) was 0.25 to 2 µg/mL. For the same compound, the “MBC range” value (HA-MRSA [1]; [4]) was 0.5 to 2 µg/mL, the “MIC range” value (HA-MRSA [1]; [4]) was 0.25 to 2 µg/mL and the “MBC range” value (HA-MRSA [1]; [5]) was 0.5 to 2 µg/mL. For the same compound, the “MIC range” value (HA-MRSA [1]; [5]) was 0.25 to 2 µg/mL, the “MBC range” value (HA-MRSA [1]; [6]) was 0.5 to 2 µg/mL and the “MIC range” value (HA-MRSA [1]; [6]) was 0.5 to 2 µg/mL. The “MBC range” value (HA-MRSA [1]; [7]) was 0.5 to 2 µg/mL, the “MIC range” value (HA-MRSA [1]; [7]) was 0.5 to 1 µg/mL and the “MBC range” value (HA-MRSA [1]; [8]) was 0.5 to 2 µg/mL. For the same compound, the “MIC range” value (HA-MRSA [1]; [8]) was 0.5 to 1 µg/mL, the MBC (HA-MRSA [1]; Staphylococcus aureus, MRSA / VISA, HA-MRSA isolate R2303 (VISA), read-out: MBC) was 0.25 µg/mL (≈ 0.413 µM) and the MIC (HA-MRSA [1]; Staphylococcus aureus, MRSA / VISA, HA-MRSA isolate R2303 (VISA)) was 0.25 µg/mL (≈ 0.413 µM). For the same compound, the MIC50 (HA-MRSA [1]; Staphylococcus aureus, MRSA, 200 HA-MRSA isolates) was 1 µg/mL (≈ 1.65 µM), the MBC (HA-MRSA [1]; Staphylococcus aureus, MRSA, HA-MRSA isolate R3804, read-out: MBC) was 0.25 µg/mL (≈ 0.413 µM) and the MIC (HA-MRSA [1]; Staphylococcus aureus, MRSA, HA-MRSA isolate R3804) was 0.25 µg/mL (≈ 0.413 µM). It also gave an MBC (HA-MRSA [1]; Staphylococcus aureus, MRSA, HA-MRSA isolate R3875 (hVISA), read-out: MBC) of 1 µg/mL (≈ 1.65 µM), an MIC (HA-MRSA [1]; Staphylococcus aureus, MRSA, HA-MRSA isolate R3875 (hVISA)) of 1 µg/mL (≈ 1.65 µM) and an MBC (HA-MRSA [1]; Staphylococcus aureus, MRSA, HA-MRSA isolate R4039, read-out: MBC) of 0.5 µg/mL (≈ 0.827 µM). The MIC (HA-MRSA [1]; Staphylococcus aureus, MRSA, HA-MRSA isolate R4039) was 0.5 µg/mL (≈ 0.827 µM), the MBC (HA-MRSA [1]; Staphylococcus aureus, MRSA, HA-MRSA isolates of origin Blood, read-out: MBC50) was 1 µg/mL (≈ 1.65 µM) and the MIC50 (HA-MRSA [1]; Staphylococcus aureus, MRSA, HA-MRSA isolates of origin Blood) was 1 µg/mL (≈ 1.65 µM). The MBC (HA-MRSA [1]; Staphylococcus aureus, MRSA, HA-MRSA isolates of origin Lung, read-out: MBC50) was 1 µg/mL (≈ 1.65 µM), the MIC50 (HA-MRSA [1]; Staphylococcus aureus, MRSA, HA-MRSA isolates of origin Lung) was 1 µg/mL (≈ 1.65 µM) and the MBC (HA-MRSA [1]; Staphylococcus aureus, MRSA, HA-MRSA isolates of origin Skin, read-out: MBC50) was 1 µg/mL (≈ 1.65 µM). It also gave an MIC50 (HA-MRSA [1]; Staphylococcus aureus, MRSA, HA-MRSA isolates of origin Skin) of 1 µg/mL (≈ 1.65 µM), an MBC (HA-MRSA [1]; Staphylococcus aureus, MRSA, HA-MRSA isolates of origin Unknown, read-out: MBC50) of 1 µg/mL (≈ 1.65 µM) and an MIC50 (HA-MRSA [1]; Staphylococcus aureus, MRSA, HA-MRSA isolates of origin Unknown) of 1 µg/mL (≈ 1.65 µM). It also gave an MBC (HA-MRSA [1]; Staphylococcus aureus, MRSA, HA-MRSA isolates of origin Urine, read-out: MBC50) of 1 µg/mL (≈ 1.65 µM), an MIC50 (HA-MRSA [1]; Staphylococcus aureus, MRSA, HA-MRSA isolates of origin Urine) of 0.5 µg/mL (≈ 0.827 µM) and an MIC90 (HA-MRSA [1]; Staphylococcus aureus, 200 HA-MRSA isolates, read-out: MIC90) of 1 µg/mL (≈ 1.65 µM). For the same compound, the MBC range (ESBL-producing E. coli; E. coli (10) clinical isolates) was 4 to 1024 µg/mL, the MIC range (ESBL-producing E. coli; E. coli (10) clinical isolates) was 2 to 512 µg/mL and the MBC (ESBL-producing E. coli; E. coli isolate no. 5401, read-out: MBC) was 8 µg/mL (≈ 13.2 µM). The MIC (ESBL-producing E. coli; E. coli isolate no. 5401, read-out: MIC) was 4 µg/mL (≈ 6.61 µM), the MBC (ESBL-producing E. coli; E. coli isolate no. 5411) was 128 µg/mL (≈ 212 µM) and the MIC (ESBL-producing E. coli; E. coli isolate no. 5411) was 64 µg/mL (≈ 106 µM). For the same compound, the MBC range [2, 9] was 0.125 to 1024 µg/mL, the MIC range [2, 9] was 0.125 to 512 µg/mL and the MBC ([2]; E. cloacae isolate no. 4073) was 512 µg/mL (≈ 847 µM). The MIC ([2]; E. cloacae isolate no. 4073) was 256 µg/mL (≈ 423 µM), the MBC ([2]; E. cloacae isolate no. 5420) was 128 µg/mL (≈ 212 µM) and the MIC ([2]; E. cloacae isolate no. 5420) was 64 µg/mL (≈ 106 µM). For the same compound, the “kill at 4 hours” value (HA-MRSA [3]) was 1.5 log10, the MBC range (P. aeruginosa; [10]) was 16 to 256 µg/mL and the MIC range (P. aeruginosa; [10]) was 8 to 256 µg/mL. The MBC (P. aeruginosa; P. aeruginosa isolate no. 796) was 32 µg/mL (≈ 52.9 µM), the MIC (P. aeruginosa; P. aeruginosa isolate no. 796) was 16 µg/mL (≈ 26.5 µM) and the MBC (P. aeruginosa; P. aeruginosa isolate no. 956) was 256 µg/mL (≈ 423 µM). For the same compound, the MIC (P. aeruginosa; P. aeruginosa isolate no. 956) was 128 µg/mL (≈ 212 µM), the MBC (P. aeruginosa; P. aeruginosa isolate no. 1019) was 64 µg/mL (≈ 106 µM) and the MIC (P. aeruginosa; P. aeruginosa isolate no. 1019) was 32 µg/mL (≈ 52.9 µM). It also gave an MBC (P. aeruginosa; P. aeruginosa isolate no. 1037) of 16 µg/mL (≈ 26.5 µM) and an MIC (P. aeruginosa; P. aeruginosa isolate no. 1037) of 8 µg/mL (≈ 13.2 µM).
